The nature of data set [1]: Critical micelle concentration (CMC) measurement, dye micellization. The data set is classed as physicochemical. The settings on record: fluorescein dye micellization in water, pH 6.9, room temperature. As to the method:
Dye micellization was carried out with a modified version of the method described by Eliyahu et al., Novel dextran-spermine conjugates as transfecting agents: comparing water-soluble and micellar polymers. […] Experiments were carried out on 96-well microtiter plates (excitation at 485 nm, emission at 535 nm). Since the emission of fluorescein is pH-dependent, the pH of the mixture was kept constant at 6.9. The CMC range was determined as the concentration range where the first statistically significant increase in fluorescence was detected.

The next data set deals with T1, FAAH (Sus scrofa, UniProt Q9TUI8).
T1 construct: 165 µl of diluted pig brain homogenate; from tissue; host or cells: pig brain homogenate
T1 sequence (Q9TUI8 1-579): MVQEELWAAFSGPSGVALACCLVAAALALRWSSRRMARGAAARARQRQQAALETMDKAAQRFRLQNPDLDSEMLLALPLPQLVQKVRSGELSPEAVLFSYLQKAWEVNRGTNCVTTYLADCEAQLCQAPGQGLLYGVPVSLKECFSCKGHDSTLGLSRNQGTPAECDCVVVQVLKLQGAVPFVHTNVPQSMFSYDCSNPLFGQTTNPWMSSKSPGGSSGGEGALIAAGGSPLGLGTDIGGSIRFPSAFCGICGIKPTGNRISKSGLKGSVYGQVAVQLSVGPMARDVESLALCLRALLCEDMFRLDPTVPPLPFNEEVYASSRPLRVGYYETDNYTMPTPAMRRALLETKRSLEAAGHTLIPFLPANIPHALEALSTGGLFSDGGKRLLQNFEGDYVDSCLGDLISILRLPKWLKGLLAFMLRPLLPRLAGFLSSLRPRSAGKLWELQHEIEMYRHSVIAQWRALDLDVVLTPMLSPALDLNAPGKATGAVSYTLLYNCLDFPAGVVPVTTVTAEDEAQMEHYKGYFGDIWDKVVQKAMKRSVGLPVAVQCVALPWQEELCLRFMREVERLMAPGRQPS
As to the kind of experiment: Fatty acid amide hydrolase (FAAH) inhibition, pig brain homogenate (assay D). The data set is classed as biochemical. The protocol:
FAAH activity was assessed using pig brain homogenate according to the method described by Omeir et al., Arachidonoyl ethanolamide-[1,2-14C] as a substrate for anandamide amidase. Life Sci. 1995;56(23-24):1999-2005, and adapted by Fowler et al., Ibuprofen inhibits rat brain deamidation of anandamide at pharmacologically relevant concentrations. Mode of inhibition and structure-activity relationship. J Pharmacol Exp Ther. 1997 Nov;283(2):729-34. Briefly, 10 µl of test compounds at the adequate concentration or solvent were incubated at 37°C for 20 min with 165 µl of diluted pig brain homogenate in 10 mM Tris-HCl and 1 mM EDTA, pH 7.6 (corresponding to 100 µg/ml of total protein), 1% w/v fatty acid free BSA (Sigma, San Louis, MO, US) and 25 µl of a mixture 1:1 of nonradioactive AEA [^3H]-AEA (60 Ci mmol^-1) (concentration in the assay was 2 µM). Successively, 400 µl of a mixture 1:1 (v/v) of methanol:chloroform was added at each sample and, after vigorous vortexing, aqueous and organic phases were separated by centrifugation at 10000 rpm for 10 min. The radioactivity associated to the [^3H]-ethanolamine (produced by FAAH-catalysed breakdown of [^3H]-AEA) was measured upon addition of 3 ml of Ultima Gold scintillation liquid (Perkin Elmer, Waltham, MA, US) to 200 µl of the aqueous (upper) phase, using a Beckman LS6500 scintillation counter. Results were expressed as % of FAAH activity vs. pig brain homogenate treated only with solvent.

For data set [2], the target named is T2, human recombinant Fatty acid amide hydrolase (Homo sapiens, UniProt O00519).
T2 sequence (O00519 1-579): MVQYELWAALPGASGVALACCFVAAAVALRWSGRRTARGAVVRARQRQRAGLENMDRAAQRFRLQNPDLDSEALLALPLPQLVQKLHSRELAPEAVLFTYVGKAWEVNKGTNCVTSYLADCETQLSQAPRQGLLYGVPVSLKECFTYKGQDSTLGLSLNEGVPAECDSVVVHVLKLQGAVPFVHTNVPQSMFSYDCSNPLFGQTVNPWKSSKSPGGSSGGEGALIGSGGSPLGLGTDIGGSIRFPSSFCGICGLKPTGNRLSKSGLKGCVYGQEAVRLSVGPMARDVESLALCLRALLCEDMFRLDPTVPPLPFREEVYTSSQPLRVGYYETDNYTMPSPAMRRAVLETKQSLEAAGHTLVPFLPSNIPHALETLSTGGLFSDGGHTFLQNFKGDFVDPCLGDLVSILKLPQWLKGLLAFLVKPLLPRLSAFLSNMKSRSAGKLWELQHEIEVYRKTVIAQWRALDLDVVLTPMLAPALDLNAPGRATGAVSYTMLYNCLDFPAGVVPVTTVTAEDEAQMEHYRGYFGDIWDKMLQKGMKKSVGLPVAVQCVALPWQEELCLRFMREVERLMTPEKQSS
As to the kind of experiment: Inhibition of human recombinant FAAH, fluorometric method (assay G). The data set is classed as biochemical. Conditions: human recombinant enzyme, AMC-anandamide substrate (assay G). As to the method:
FAAH activity is measured using the modified method described by Omeir et al., Arachidonoyl ethanolamide-[1,2-14C] as a substrate for anandamide amidase. Life Sci. 1995;56(23-24):1999-2005. Human recombinant enzyme is preincubated with reference compound (methylarachidonlyfluorophosphonate, MAFP) and test compounds for 30 min at room temperature in 50 mM Tris containing 1 mM EDTA and 0.1% fatty acid free BSA (pH 8.0). Substrate (7-amino-4-methyl coumarin-arachidonamide, AMC-anandamide) is then added and incubated for 30 min at room temperature. The reaction is stopped by the addition of 2.5 µl of 10 µM URB597. Released 7-amino-4-methyl coumarin (AMC) is detected by fluorometry in order to ascertain any interactions of test compounds with the FAAH enzyme.

For a further data set, the system named is Anandamide transport. As to the kind of experiment: Anandamide transport (human) cellular functional assay (assay F). Format: cell-based. The settings on record: human U-937 cells, 0.1 µM [3H]-Anandamide, 20 min (assay F). As to the method:
Anandamide transport is determined using human U-937 cells as receptor source. [3H]-Anandamide (0.1 Ci/mmol), final concentration 0.1 µM is used as substrate. AM-404 is used as reference compound. Reactions are carried out in KRH buffer (pH 7.4) at 37°C for 20 min. The reaction is terminated by rapid vacuum filtration onto glass fiber filters. Radioactivity trapped onto filters is determined and compared to control values in order to ascertain any interactions of test compound with anandamide uptake (Hiiliard C.J. The movement of N-arachidonylethanolamide (anandamide) across cellular membranes. Chem. Physics Lipids. 2008;108:123-134, with modifications).

The subject of data set [3] is Arachidonoylethanolamide Transport (AEAT). Put plainly: Cellular uptake of [3H]-AEA in U937 cells (assay C). Format: cell-based. Conditions: Homo sapiens, U-937; [3H]-AEA uptake, assay C (Tables 2 and 3).

One may read the inhibition as the share of the control response that was lost under treatment. In data set [1], `CCCCCCC/C=C/C=C/C(=O)NCc1ccoc1` [Example 4, (2E,4E)-N-(furan-3-ylmethyl)dodeca-2,4-diene amide] returned a CMC of under 3 µM. Further, the inhibition at 2 µM on FAAH (read-out: max. inhibition of FAAH activity) was found to be 40%.
`CCCCCCC/C=C/C=C/C(=O)NCc1cccn1C` [Example 5] registered a CMC in data set [1] of under 1 µM. At FAAH (read-out: maximal inhibition of FAAH activity), the inhibition at 1 µM was 32%.
As to `CCCCCCC/C=C/C=C/C(=O)NCc1ccc(OC)cc1` [Example 7, (2E,4E)-N-(4-methoxybenzyl)dodeca-2,4-diene amide], the “effect on FAAH activity in combination with the FAAH inhibitor URB597” value at FAAH (Figure 3, low nM concentrations) is listed as “synergistic effects”. In addition, in data set [2], the “FAAH inhibition at 1 µM” value is listed as 6 % of control. For the same molecule, the “AEAT inhibition at 1 µM” value in the data set on Anandamide transport was 28 % of control.
What is called EC50 is the concentration at which the effect is half-maximal. The low end stands for greater potency, the high end for weaker potency. `CCCCCCC/C=C/C=C/C(=O)NCCc1ccco1` [Example 16] registered an EC50 in data set [3] of 890 ± 400 nM. Besides, the “FAAH inhibition at 1 µM” value in data set [2] was 42 % of control. In the data set on Anandamide transport, the “AEAT inhibition at 1 µM” value is 57 % of control.
In data set [3], `CCCCCCC/C=C/C=C/C(=O)NCCc1ccsc1` [Example 19] yielded an EC50 of 520 ± 470 nM. Further, the “FAAH inhibition at 1 µM” value in data set [2] is 53 % of control. In addition, in the data set on Anandamide transport, the “AEAT inhibition at 1 µM” value is 34 % of control.
On to `CCCCCCC/C=C/C=C/C(=O)Nc1nccs1` [Example 20], for which the EC50 in data set [3] is 780 ± 250 nM. Also, in data set [2], the “FAAH inhibition at 1 µM” value is -16 % of control. In the data set with Anandamide transport, the “AEAT inhibition at 1 µM” value is 47 % of control.
For `CCCCCCC/C=C/C=C/C(=O)Nc1ccccc1` [Example 24], in data set [2], the “FAAH inhibition at 1 µM” value was 2 % of control. Further, the “AEAT inhibition at 1 µM” value with Anandamide transport is recorded as 30 % of control.
Turning to `CCCCCCC/C=C/C=C/C(=O)NCc1ccccc1` [Example 25], the “FAAH inhibition at 1 µM” value in data set [2] is on record as 2 % of control. Besides, the “AEAT inhibition at 1 µM” value with Anandamide transport is 47 % of control.
As for `CCCCCCC/C=C/C=C/C(=O)Nc1nc2ccccc2s1` [Example 35], the “FAAH inhibition at 1 µM” value in data set [2] is on record as 61 % of control. The “AEAT inhibition at 1 µM” value in the data set with Anandamide transport is 42 % of control.
Consider `CCCCCCC/C=C/C=C/C(=O)Nc1ccc(C2=NCCS2)cc1` [Example 37], for which the “FAAH inhibition at 1 µM” value in data set [2] is reported as 9 % of control. Also, in the data set with Anandamide transport, the “AEAT inhibition at 1 µM” value is 38 % of control.
In the same order, the values of `CCCCCCC/C=C/C=C/C(=O)NCc1nnn(C(=O)N(C)C)n1` [Example 39] are 101 % of control and 120 % of control.
In the same order, the values of `CCCCCCC/C=C/C=C/C(=O)NCC(C)O` (stereo not shown) [Example 41] are 45 % of control and 27 % of control.
`CCCCCCC/C=C/C=C/C(=O)NCCc1ccnc(OC)c1` [Example 47]: the “FAAH inhibition at 1 µM” value in data set [2] is 6 % of control. In addition, the “AEAT inhibition at 1 µM” value with Anandamide transport is listed as 50 % of control.
Take `CCCCCCC/C=C/C=C/C(=O)NC(CO)Cc1cccs1` (stereo not shown) [Example 49]: the “FAAH inhibition at 1 µM” value in data set [2] is reported as 25 % of control. Moreover, the “AEAT inhibition at 1 µM” value with Anandamide transport was 25 % of control.
Take `CCCCCCC/C=C/C=C/C(=O)NCC(O)c1ccc(OC)cc1` (stereo not shown) [Example 56]: the “FAAH inhibition at 1 µM” value in data set [2] is given as -1 % of control. In addition, in the data set with Anandamide transport, the “AEAT inhibition at 1 µM” value is 36 % of control.
`CCCCCCC/C=C/C=C/C(=O)NCCc1ccccn1` [Example 68]: the “FAAH inhibition at 1 µM” value in data set [2] is -2 % of control. Further, the “AEAT inhibition at 1 µM” value with Anandamide transport is reported as 41 % of control.
Turning to `CCCCCCC/C=C/C=C/C(=O)Nc1nc2cc(C)c(C)cc2s1` [Example 72], in data set [2], the “FAAH inhibition at 1 µM” value is reported as 30 % of control. For the same molecule, the “AEAT inhibition at 1 µM” value in the data set with Anandamide transport is given as 37 % of control.
Consider `CCCCCCC/C=C/C=C/C(=O)Nc1ccc(Oc2ccc(C(F)(F)F)cc2)cc1` [Example 84], for which the “FAAH inhibition at 1 µM” value in data set [2] was 30 % of control. For the same molecule, the “AEAT inhibition at 1 µM” value in the data set on Anandamide transport is recorded as 30 % of control.

The values above are taken from patent publication EP2435019B1, “DODECA-2E,4E-DIENE AMIDES AND THEIR USE AS MEDICAMENTS AND COSMETICS” (Dr. August Wolff GmbH & Co. KG Arzneimittel, priority 2009, dated 2010).
